The text below walks through data of US20230348442A1, “GALECTIN-3 INHIBITING 2-HYDROXYCYCLOALKANE-1-CARBAMOYL DERIVATIVES” (Idorsia Pharmaceuticals Ltd, priority 2020, published 2023).

Sequence of human Gal-3 (hGal-3) (P17931 whole entry): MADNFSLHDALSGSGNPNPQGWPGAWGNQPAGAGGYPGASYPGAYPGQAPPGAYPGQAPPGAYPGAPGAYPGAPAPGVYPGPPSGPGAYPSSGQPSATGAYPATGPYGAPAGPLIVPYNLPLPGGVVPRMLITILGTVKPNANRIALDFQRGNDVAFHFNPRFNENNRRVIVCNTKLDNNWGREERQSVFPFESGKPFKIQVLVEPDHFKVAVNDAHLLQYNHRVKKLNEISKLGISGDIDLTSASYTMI

The target in the experiment is human Gal-3 (hGal-3) (Homo sapiens (Human), UniProt P17931). The experiment can be described thus: competitive binding assay: binding of biotinylated hGal-3 to microplate-adsorbed asialofetuin (ASF), spectrophotometric. Particulars: Activity on hGal-3; mean values of several measurements. The method in brief:
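Biotinylated hGal-3 (300-1000 ng/mL) bound to ASF-coated wells with serially diluted compound, 3 h at 4° C. After washing, bound protein was detected with streptavidin-peroxidase (80 ng/mL, 1 h, 4° C) and ABTS substrate; IC50 values are means of several measurements.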
On to `N#Cc1cc(Cl)cc(N(C(=O)[C@@H]2O[C@H](CO)[C@H](O)[C@H](n3cc(-c4cc(F)c(F)c(F)c4)nn3)[C@H]2O)[C@H]2CC[C@@H]2O)c1` [Example 2H.1.4, (2R,3R,4S,5R,6R)-N-(3-chloro-5-cyanophenyl)-3,5-dihydroxy-N-((1S,2S)-2-hydroxycyclobutyl)-6-(hydroxymethyl)-4-(4-(3,4,5-trifluorophenyl)-1H-1,2,3-triazol-1-yl)tetrahydro-2H-pyran-2-carboxamide], for which the IC50 is 33.8 nM.
To `CO[C@@H]1[C@@H](n2cc(-c3cc(F)c(F)c(Cl)c3)nn2)[C@@H](O)[C@@H](CO)O[C@H]1C(=O)N(c1cc(Br)cc(C#N)c1)[C@@H]1CC[C@H]1O` [Example 2.7.5R, (2R,3R,4S,5R,6R)-N-(3-bromo-5-cyanophenyl)-4-(4-(3-chloro-4,5-difluorophenyl)-1H-1,2,3-triazol-1-yl)-5-hydroxy-N-((1R,2R)-2-hydroxycyclobutyl)-6-(hydroxymethyl)-3-methoxytetrahydro-2H-pyran-2-carboxamide] belongs 232 nM; to `O=C([C@@H]1O[C@H](CO)[C@H](O)[C@H](n2cc(-c3cc(F)c(Cl)c(F)c3)nn2)[C@H]1O)N(c1cc(Cl)cc(Cl)c1)[C@H]1CCC[C@@H]1O` [Example 1H.5.2, (2R,3R,4S,5R,6R)-4-(4-(4-chloro-3,5-difluorophenyl)-1H-1,2,3-triazol-1-yl)-N-(3,5-dichlorophenyl)-3,5-dihydroxy-N-((1S,2S)-2-hydroxycyclopentyl)-6-(hydroxymethyl)tetrahydro-2H-pyran-2-carboxamide], 14.3 nM.
`CC(=O)O[C@@H]1[C@@H](n2cc(-c3cc(F)c(F)c(F)c3)nn2)[C@@H](O)[C@@H](CO)O[C@H]1C(=O)N(c1cc(Cl)cc(Cl)c1)[C@H]1CCC[C@@H]1O` [Example 1A.1.2, (2R,3R,4S,5R,6R)-2-((3,5-dichlorophenyl)((1S,2S)-2-hydroxycyclopentyl)carbamoyl)-5-hydroxy-6-(hydroxymethyl)-4-(4-(3,4,5-trifluorophenyl)-1H-1,2,3-triazol-1-yl)tetrahydro-2H-pyran-3-yl acetate] registered an IC50 of 23 nM.
The compound `CO[C@@H]1[C@@H](n2cc(-c3cc(F)cc(Br)c3)nn2)[C@@H](O)[C@@H](CO)O[C@H]1C(=O)N(c1cc(Cl)cc(C#N)c1)[C@H]1CCC[C@@H]1O` [Example 1.10.4, (2R,3R,4S,5R,6R)-4-(4-(3-bromo-5-fluorophenyl)-1H-1,2,3-triazol-1-yl)-N-(3-chloro-5-cyanophenyl)-5-hydroxy-N-((1S,2S)-2-hydroxycyclopentyl)-6-(hydroxymethyl)-3-methoxytetrahydro-2H-pyran-2-carboxamide] gave an IC50 of 58.3 nM. This IC50 is about 2.5-fold higher than that of the compound before.
Compound `CO[C@@H]1[C@@H](n2cc(-c3ccc(F)c(F)c3F)nn2)[C@@H](O)[C@@H](CO)O[C@H]1C(=O)N(c1cc(Cl)cc(C#N)c1)[C@H]1CCC[C@@H]1O` [Example 1.20.4, (2R,3R,4S,5R,6R)-N-(3-chloro-5-cyanophenyl)-5-hydroxy-N-((1S,2S)-2-hydroxycyclopentyl)-6-(hydroxymethyl)-3-methoxy-4-(4-(2,3,4-trifluorophenyl)-1H-1,2,3-triazol-1-yl)tetrahydro-2H-pyran-2-carboxamide] returned an IC50 of 25.7 nM.
Then `CO[C@@H]1[C@@H](n2cc(-c3ccc(Cl)cc3)nn2)[C@@H](O)[C@@H](CO)O[C@H]1C(=O)N(c1cc(Cl)cc(C#N)c1)[C@@H]1CCC[C@H]1O` [Example 1.18.4R, (2R,3R,4S,5R,6R)-N-(3-chloro-5-cyanophenyl)-4-(4-(4-chlorophenyl)-1H-1,2,3-triazol-1-yl)-5-hydroxy-N-((1R,2R)-2-hydroxycyclopentyl)-6-(hydroxymethyl)-3-methoxytetrahydro-2H-pyran-2-carboxamide], with 536 nM; and `CO[C@@H]1[C@@H](n2cc(-c3cc(F)c(Cl)c(Cl)c3)nn2)[C@@H](O)[C@@H](CO)O[C@H]1C(=O)N(c1cc(Br)cc(C#N)c1)[C@H]1CCC[C@@H]1O` [Example 1.17.5, (2R,3R,4S,5R,6R)-N-(3-bromo-5-cyanophenyl)-4-(4-(3,4-dichloro-5-fluorophenyl)-1H-1,2,3-triazol-1-yl)-5-hydroxy-N-((1S,2S)-2-hydroxycyclopentyl)-6-(hydroxymethyl)-3-methoxytetrahydro-2H-pyran-2-carboxamide], with 46.3 nM.
In turn, `CO[C@@H]1[C@@H](n2cc(-c3ccc(Br)cc3)nn2)[C@@H](O)[C@@H](CO)O[C@H]1C(=O)N(c1cc(Cl)cc(C#N)c1)[C@@H]1CCC[C@H]1O` [Example 1.19.4R, (2R,3R,4S,5R,6R)-4-(4-(4-bromophenyl)-1H-1,2,3-triazol-1-yl)-N-(3-chloro-5-cyanophenyl)-5-hydroxy-N-((1R,2R)-2-hydroxycyclopentyl)-6-(hydroxymethyl)-3-methoxytetrahydro-2H-pyran-2-carboxamide] came in with a 50% inhibitory concentration (IC50) of 312 nM.
As for `CO[C@@H]1[C@@H](n2cc(-c3cc(F)c(F)c(F)c3)nn2)[C@@H](O)[C@@H](CO)O[C@H]1C(=O)N(c1cc(Cl)cc(Cl)c1)[C@@H]1CCC[C@H]1O` [Example 1.1.2R, (2R,3R,4S,5R,6R)-N-(3,5-dichlorophenyl)-5-hydroxy-N-((1R,2R)-2-hydroxycyclopentyl)-6-(hydroxymethyl)-3-methoxy-4-(4-(3,4,5-trifluorophenyl)-1H-1,2,3-triazol-1-yl)tetrahydro-2H-pyran-2-carboxamide], the 50% inhibitory concentration (IC50) came out at 104 nM.
Then `CO[C@@H]1[C@@H](n2cc(-c3cc(F)c(F)c(F)c3)nn2)[C@@H](O)[C@@H](CO)O[C@H]1C(=O)N(c1cc(Cl)cc(C#N)c1)[C@H]1CCC[C@@H]1O` [Example 1.1.4, (2R,3R,4S,5R,6R)-N-(3-chloro-5-cyanophenyl)-5-hydroxy-N-((1S,2S)-2-hydroxycyclopentyl)-6-(hydroxymethyl)-3-methoxy-4-(4-(3,4,5-trifluorophenyl)-1H-1,2,3-triazol-1-yl)tetrahydro-2H-pyran-2-carboxamide], with 27.3 nM; and `CO[C@@H]1[C@@H](n2cc(-c3ccc(Cl)c(Cl)c3)nn2)[C@@H](O)[C@@H](CO)O[C@H]1C(=O)N(c1cc(Cl)cc(C#N)c1)[C@H]1CC[C@@H]1O` [Example 2.8.4, (2R,3R,4S,5R,6R)-N-(3-chloro-5-cyanophenyl)-4-(4-(3,4-dichlorophenyl)-1H-1,2,3-triazol-1-yl)-5-hydroxy-N-((1S,2S)-2-hydroxycyclobutyl)-6-(hydroxymethyl)-3-methoxytetrahydro-2H-pyran-2-carboxamide], with 131 nM.
Then `CO[C@@H]1[C@@H](n2cc(-c3cc(F)c(Cl)c(Cl)c3)nn2)[C@@H](O)[C@@H](CO)O[C@H]1C(=O)N(c1cc(Br)cc(C#N)c1)[C@H]1CC[C@@H]1O` [Example 2.17.5, (2R,3R,4S,5R,6R)-N-(3-bromo-5-cyanophenyl)-4-(4-(3,4-dichloro-5-fluorophenyl)-1H-1,2,3-triazol-1-yl)-5-hydroxy-N-((1S,2S)-2-hydroxycyclobutyl)-6-(hydroxymethyl)-3-methoxytetrahydro-2H-pyran-2-carboxamide], with 56 nM.
Then `CO[C@@H]1[C@@H](n2cc(-c3cccc(F)c3)nn2)[C@@H](O)[C@@H](CO)O[C@H]1C(=O)N(c1cc(Cl)cc(C#N)c1)[C@@H]1CCC[C@H]1O` [Example 1.15.4R, (2R,3R,4S,5R,6R)-N-(3-chloro-5-cyanophenyl)-4-(4-(3-fluorophenyl)-1H-1,2,3-triazol-1-yl)-5-hydroxy-N-((1R,2R)-2-hydroxycyclopentyl)-6-(hydroxymethyl)-3-methoxytetrahydro-2H-pyran-2-carboxamide], with 838 nM.
The compound `CO[C@@H]1[C@@H](n2cc(-c3ccc(C#N)c(F)c3)nn2)[C@@H](O)[C@@H](CO)O[C@H]1C(=O)N(c1cc(Br)cc(C#N)c1)[C@@H]1CC[C@H]1O` [Example 2.16.5R, (2R,3R,4S,5R,6R)-N-(3-bromo-5-cyanophenyl)-4-(4-(4-cyano-3-fluorophenyl)-1H-1,2,3-triazol-1-yl)-5-hydroxy-N-((1R,2R)-2-hydroxycyclobutyl)-6-(hydroxymethyl)-3-methoxytetrahydro-2H-pyran-2-carboxamide] displayed an IC50 of 805 nM.
To `CO[C@@H]1[C@@H](n2cc(-c3cc(F)c(Cl)c(F)c3)nn2)[C@@H](O)[C@@H](CO)O[C@H]1C(=O)N(c1cc(Cl)cc(C#N)c1)[C@H]1CCC[C@@H]1O` [Example 1.5.4, (2R,3R,4S,5R,6R)-4-(4-(4-chloro-3,5-difluorophenyl)-1H-1,2,3-triazol-1-yl)-N-(3-chloro-5-cyanophenyl)-5-hydroxy-N-((1S,2S)-2-hydroxycyclopentyl)-6-(hydroxymethyl)-3-methoxytetrahydro-2H-pyran-2-carboxamide] belongs 36.7 nM; to `COc1cc(C#N)cc(N(C(=O)[C@@H]2O[C@H](CO)[C@H](O)[C@H](n3cc(-c4ccc(C#N)c(F)c4)nn3)[C@H]2OC)[C@@H]2CCC[C@H]2O)c1` [Example 1.16.9R, (2R,3R,4S,5R,6R)-4-(4-(4-cyano-3-fluorophenyl)-1H-1,2,3-triazol-1-yl)-N-(3-cyano-5-methoxyphenyl)-5-hydroxy-N-((1R,2R)-2-hydroxycyclopentyl)-6-(hydroxymethyl)-3-methoxytetrahydro-2H-pyran-2-carboxamide], 1460 nM; to `CO[C@@H]1[C@@H](n2cc(-c3ccc(Br)c(F)c3F)nn2)[C@@H](O)[C@@H](CO)O[C@H]1C(=O)N(c1cc(Br)cc(C#N)c1)[C@H]1CCC[C@@H]1O` [Example 1.12.5, (2R,3R,4S,5R,6R)-4-(4-(4-bromo-2,3-difluorophenyl)-1H-1,2,3-triazol-1-yl)-N-(3-bromo-5-cyanophenyl)-5-hydroxy-N-((1S,2S)-2-hydroxycyclopentyl)-6-(hydroxymethyl)-3-methoxytetrahydro-2H-pyran-2-carboxamide], 13.6 nM.
`CO[C@@H]1[C@@H](n2cc(-c3cc(F)cc(F)c3)nn2)[C@@H](O)[C@@H](CO)O[C@H]1C(=O)N(c1cc(Br)cc(C#N)c1)[C@H]1CCC[C@@H]1O` [Example 1.2.5, (2R,3R,4S,5R,6R)-N-(3-bromo-5-cyanophenyl)-4-(4-(3,5-difluorophenyl)-1H-1,2,3-triazol-1-yl)-5-hydroxy-N-((1S,2S)-2-hydroxycyclopentyl)-6-(hydroxymethyl)-3-methoxytetrahydro-2H-pyran-2-carboxamide] returned an IC50 of 146 nM.

As usually defined, the IC50 is the concentration at which inhibition is half-maximal. Low readings indicate greater potency, high ones weaker potency.
